Patent US20170190671A1, “BIS(ARYL)CATECHOL DERIVATIVES AS HERBICIDES” (E I DU PONT DE NEMOURS AND COMPANY, priority 2014, published 2017)

Columns and labels:
Test in all cases: Test E preemergence
Format in all cases: in vivo
Settings in all cases: scale 0 to 100
[1] = system: barnyardgrass (Echinochloa crus-galli)
Description: (§1) Seeds of plant species selected from corn (Zea mays), soybean (Glycine max), velvetleaf (Abutilon theophrasti), cocklebur (common cocklebur, Xanthium strumarium), lambsquarters (Chenopodium album), wild poinsettia (Euphorbia heterophylla), palmer pigweed (Amaranthus palmeri), waterhemp (common waterhemp, Amaranthus rudis), surinam grass (Brachiaria decumbens), large (Lg) crabgrass (Digitaria sanguinalis), Brazilian crabgrass (Digitaria horizontalis), fall panicum (Panicum dichotomiflorum), giant foxtail (Setaria faberii), green foxtail (Setaria viridis), goosegrass (Eleusine indica), johnsongrass (Sorghum halepense), ragweed (common ragweed, Ambrosia elatior), barnyardgrass (Echinochloa crus-galli), sandbur (southern sandbur, Cenchrus echinatus), arrowleaf sida (Sida rhombifolia), Italian ryegrass (Lolium multiflorum), dayflower (Virginia (VA) dayflower, Commelina virginica), field bindweed (Convolvulus arvensis), morningglory (Ipomoea coccinea), nightshade (eastern black nightshade, Solanum ptycanthum), kochia (Kochia scoparia), yellow nutsedge (Cyperus esculentus), horseweed (Conyza canadensis), and hairy beggarticks (Bidens pilosa), were planted into a silt loam soil and treated preemergence with test chemicals formulated in a non-phytotoxic solvent mixture which included a surfactant.
(§2) At the same time, plants from these crop and weed species and also waterhemp_RES1, (ALS & Triazine resistant common waterhemp, Amaranthus rudis), and waterhemp_RES2, (ALS & HPPD resistant common waterhemp, Amaranthus rudis) were planted in pots containing Redi-Earth® planting medium (Scotts Company, 14111 Scottslawn Road, Marysville, Ohio 43041) comprising spaghnum peat moss, vermiculite, wetting agent and starter nutrients were treated with postemergence applications of test chemicals formulated in the same manner. Plants ranged in height from 2 to 18 cm for postemergence treatments (1- to 4-leaf stage). Treated plants and controls were maintained in a greenhouse for 14 to 21 days, after which time all species were compared to controls and visually evaluated. Plant response ratings, summarized in Table E, are based on a scale of 0 to 100 where 0 is no effect and 100 is complete control. A dash (-) response means no test result.

[2] = system: nightshade (eastern black nightshade, Solanum ptycanthum)
Description: as §1, §2

[3] = system: corn (Zea mays)
Description: as §1, §2

[4] = system: soybean (Glycine max)
Description: as §1, §2

[5] = system: giant foxtail (Setaria faberii)
Description: as §1, §2

[6] = system: velvetleaf (Abutilon theophrasti)
Description: as §1, §2

[7] = system: goosegrass (Eleusine indica)
Description: as §1, §2

[8] = system: waterhemp (common waterhemp, Amaranthus rudis)
Description: as §1, §2

[9] = system: Italian ryegrass (Lolium multiflorum)
Description: as §1, §2

[10] = system: ragweed (common ragweed, Ambrosia elatior)
Description: as §1, §2

[11] = system: sandbur (southern sandbur, Cenchrus echinatus)
Description: as §1, §2

[12] = system: Brazilian crabgrass (Digitaria horizontalis)
Description: as §1, §2

[13] = system: large (Lg) crabgrass (Digitaria sanguinalis)
Description: as §1, §2

[14] = system: arrowleaf sida (Sida rhombifolia)
Description: as §1, §2

[15] = system: yellow nutsedge (Cyperus esculentus)
Description: as §1, §2

[16] = system: hairy beggarticks (Bidens pilosa)
Description: as §1, §2

[17] = system: morningglory (Ipomoea coccinea)
Description: as §1, §2

[18] = system: green foxtail (Setaria viridis)
Description: as §1, §2

[19] = system: dayflower (Virginia (VA) dayflower, Commelina virginica)
Description: as §1, §2

[20] = system: lambsquarters (Chenopodium album)
Description: as §1, §2

[21] = system: fall panicum (Panicum dichotomiflorum)
Description: as §1, §2

In the case of `Clc1cnc(Oc2cccc(Br)c2Oc2ncc(Cl)cn2)nc1` [Compound 19, 2,2′-[[3-bromo-1,2-phenylene]bis(oxy)]bis[5-chloropyrimidine]], the “Plant response rating, Barnyardgrass” value ([1]; 16 g ai/ha) is reported as 0, the “Plant response rating, Barnyardgrass” value ([1]; 31 g ai/ha) is reported as 0 and the “Plant response rating, Barnyardgrass” value ([1]; 62 g ai/ha) is reported as 20. The “Plant response rating, Barnyardgrass” value ([1]; 125 g ai/ha) was 70, the “Plant response rating, Nightshade” value ([2]; 16 g ai/ha) was 0 and the “Plant response rating, Nightshade” value ([2]; 31 g ai/ha) was 0. The “Plant response rating, Nightshade” value ([2]; 62 g ai/ha) was 65, the “Plant response rating, Nightshade” value ([2]; 125 g ai/ha) was 98 and the “Plant response rating, Corn” value ([3]; 16 g ai/ha) was 0. The “Plant response rating, Corn” value ([3]; 31 g ai/ha) was 0, the “Plant response rating, Corn” value ([3]; 62 g ai/ha) was 20 and the “Plant response rating, Corn” value ([3]; 125 g ai/ha) was 50. For the same compound, the “Plant response rating, Soybean” value ([4]; 16 g ai/ha) was 0, the “Plant response rating, Soybean” value ([4]; 31 g ai/ha) was 0 and the “Plant response rating, Soybean” value ([4]; 62 g ai/ha) was 0. The “Plant response rating, Soybean” value ([4]; 125 g ai/ha) was 50, the “Plant response rating, Foxtail, Giant” value ([5]; 16 g ai/ha) was 0 and the “Plant response rating, Foxtail, Giant” value ([5]; 31 g ai/ha) was 95. The “Plant response rating, Foxtail, Giant” value ([5]; 62 g ai/ha) was 100, the “Plant response rating, Foxtail, Giant” value ([5]; 125 g ai/ha) was 100 and the “Plant response rating, Velvetleaf” value ([6]; 16 g ai/ha) was 0. For the same compound, the “Plant response rating, Velvetleaf” value ([6]; 31 g ai/ha) was 0, the “Plant response rating, Velvetleaf” value ([6]; 62 g ai/ha) was 50 and the “Plant response rating, Velvetleaf” value ([6]; 125 g ai/ha) was 100. For the same compound, the “Plant response rating, Goosegrass” value ([7]; 16 g ai/ha) was 5, the “Plant response rating, Goosegrass” value ([7]; 31 g ai/ha) was 75 and the “Plant response rating, Goosegrass” value ([7]; 62 g ai/ha) was 90. The “Plant response rating, Goosegrass” value ([7]; 125 g ai/ha) was 98, the “Plant response rating, Waterhemp” value ([8]; 16 g ai/ha) was 65 and the “Plant response rating, Waterhemp” value ([8]; 31 g ai/ha) was 65. For the same compound, the “Plant response rating, Waterhemp” value ([8]; 62 g ai/ha) was 100, the “Plant response rating, Waterhemp” value ([8]; 125 g ai/ha) was 100 and the “Plant response rating, Ryegrass, Italian” value ([9]; 16 g ai/ha) was 0. The “Plant response rating, Ryegrass, Italian” value ([9]; 31 g ai/ha) was 0, the “Plant response rating, Ryegrass, Italian” value ([9]; 62 g ai/ha) was 65 and the “Plant response rating, Ryegrass, Italian” value ([9]; 125 g ai/ha) was 70. The “Plant response rating, Ragweed” value ([10]; 16 g ai/ha) was 0, the “Plant response rating, Ragweed” value ([10]; 31 g ai/ha) was 0 and the “Plant response rating, Ragweed” value ([10]; 62 g ai/ha) was 10. For the same compound, the “Plant response rating, Ragweed” value ([10]; 125 g ai/ha) was 50, the “Plant response rating, Sandbur” value ([11]; 16 g ai/ha) was 0 and the “Plant response rating, Sandbur” value ([11]; 31 g ai/ha) was 0. The “Plant response rating, Sandbur” value ([11]; 62 g ai/ha) was 0, the “Plant response rating, Sandbur” value ([11]; 125 g ai/ha) was 20 and the “Plant response rating, Crabgrass, Brazil” value ([12]; 16 g ai/ha) was 0. The “Plant response rating, Crabgrass, Brazil” value ([12]; 31 g ai/ha) was 40, the “Plant response rating, Crabgrass, Brazil” value ([12]; 62 g ai/ha) was 100 and the “Plant response rating, Crabgrass, Brazil” value ([12]; 125 g ai/ha) was 100. For the same compound, the “Plant response rating, Crabgrass, Large” value ([13]; 16 g ai/ha) was 20, the “Plant response rating, Crabgrass, Large” value ([13]; 31 g ai/ha) was 80 and the “Plant response rating, Crabgrass, Large” value ([13]; 62 g ai/ha) was 100. The “Plant response rating, Crabgrass, Large” value ([13]; 125 g ai/ha) was 100, the “Plant response rating, Arrowleaf Sida” value ([14]; 16 g ai/ha) was 65 and the “Plant response rating, Arrowleaf Sida” value ([14]; 31 g ai/ha) was 40. For the same compound, the “Plant response rating, Arrowleaf Sida” value ([14]; 62 g ai/ha) was 100, the “Plant response rating, Arrowleaf Sida” value ([14]; 125 g ai/ha) was 100 and the “Plant response rating, Nutsedge, Yellow” value ([15]; 16 g ai/ha) was 0. The “Plant response rating, Nutsedge, Yellow” value ([15]; 31 g ai/ha) was 0, the “Plant response rating, Nutsedge, Yellow” value ([15]; 62 g ai/ha) was 0 and the “Plant response rating, Nutsedge, Yellow” value ([15]; 125 g ai/ha) was 20. The “Plant response rating, Beggarticks” value ([16]; 16 g ai/ha) was 0, the “Plant response rating, Beggarticks” value ([16]; 31 g ai/ha) was 0 and the “Plant response rating, Beggarticks” value ([16]; 62 g ai/ha) was 0. For the same compound, the “Plant response rating, Beggarticks” value ([16]; 125 g ai/ha) was 0, the “Plant response rating, Morningglory” value ([17]; 16 g ai/ha) was 0 and the “Plant response rating, Morningglory” value ([17]; 31 g ai/ha) was 0. The “Plant response rating, Morningglory” value ([17]; 62 g ai/ha) was 5, the “Plant response rating, Morningglory” value ([17]; 125 g ai/ha) was 65 and the “Plant response rating, Foxtail, Green” value ([18]; 16 g ai/ha) was 0. For the same compound, the “Plant response rating, Foxtail, Green” value ([18]; 31 g ai/ha) was 60, the “Plant response rating, Foxtail, Green” value ([18]; 62 g ai/ha) was 98 and the “Plant response rating, Foxtail, Green” value ([18]; 125 g ai/ha) was 100. For the same compound, the “Plant response rating, Dayflower, VA” value ([19]; 16 g ai/ha) was 0, the “Plant response rating, Dayflower, VA” value ([19]; 31 g ai/ha) was 0 and the “Plant response rating, Dayflower, VA” value ([19]; 62 g ai/ha) was 5. For the same compound, the “Plant response rating, Dayflower, VA” value ([19]; 125 g ai/ha) was 10, the “Plant response rating, Lambsquarters” value ([20]; 16 g ai/ha) was 60 and the “Plant response rating, Lambsquarters” value ([20]; 31 g ai/ha) was 100. For the same compound, the “Plant response rating, Lambsquarters” value ([20]; 62 g ai/ha) was 100, the “Plant response rating, Lambsquarters” value ([20]; 125 g ai/ha) was 100 and the “Plant response rating, Panicum, Fall” value ([21]; 16 g ai/ha) was 100. The “Plant response rating, Panicum, Fall” value ([21]; 31 g ai/ha) was 85, the “Plant response rating, Panicum, Fall” value ([21]; 62 g ai/ha) was 98 and the “Plant response rating, Panicum, Fall” value ([21]; 125 g ai/ha) was 100.
